Results from US7968720B2, “Secondary amines as renin inhibitors” (Actelion Pharmaceuticals Ltd., priority 2006, dated 2011).
Counter-ions that a name gives are not always drawn.

Biological target: T1, recombinant human renin (Homo sapiens, UniProt P00797)
T1 sequence (P00797 67-406): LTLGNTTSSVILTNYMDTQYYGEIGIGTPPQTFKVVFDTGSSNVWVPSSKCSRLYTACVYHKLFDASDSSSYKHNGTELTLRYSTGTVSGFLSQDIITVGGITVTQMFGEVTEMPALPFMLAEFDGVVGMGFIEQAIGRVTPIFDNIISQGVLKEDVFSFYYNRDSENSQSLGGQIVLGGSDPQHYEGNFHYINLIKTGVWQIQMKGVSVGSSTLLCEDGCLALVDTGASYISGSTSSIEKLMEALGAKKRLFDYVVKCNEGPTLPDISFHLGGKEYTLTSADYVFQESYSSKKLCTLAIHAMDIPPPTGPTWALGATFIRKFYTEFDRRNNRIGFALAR
Assay: Primary renin inhibition assay: IC50 in buffer, 384 well MTP (AngI measured by EIA)
Assay type: biochemical
Settings: human tetradecapeptide (1-14) substrate, incubated at 37° C. for 3 h, AngI quantified by EIA
Protocol: 1. Enzyme Immuno Assay (EIA) to Estimate AngI Accumulation and Renin Inhibition
1.1 Preparation of AngI-BSA Conjugate
1.3 mg (1 μmol) of AngI [1-10 (Bachem, H-1680)] and 17 mg (0.26 μmol) of BSA (Fluka, 05475) were dissolved in 4 mL of 0.1M phosphate buffer, pH 7.4, after which 2 mL of a 1:100 dilution of glutaraldehyde in H2O (Sigma G-5882) was added dropwise. The mixture was incubated overnight at 4° C., then dialyzed against 2 liters of 0.9% NaCl, twice for 4 h at rt, followed by dialysis against 2 liters of PBS 1× overnight at rt. The solution was then filtered with a Syringe filter, 0.45 μm (Nalgene, Cat. No. 194-2545). The conjugate can be stored in polypropylene tubes in 0.05% sodium azide at 4° C. for at least 12 months.
1.2 Preparation of BSA-AngI Coated MTP
Microtiter plates (MPT384, MaxiSorp™, Nunc) were incubated overnight at 4° C. with 80 μl of AngI (1-10)/BSA conjugate, diluted 1:100'000 in PBS 1× in a teflon beaker (exact dilution dependent on batch of conjugate), emptied, filled with 90 μl of blocking solution [0.5% BSA (Sigma A-2153) in PBS 1×, 0.02% NaN3], and incubated for at least 2 h at rt, or overnight at 4° C. 96 well MTP (MaxiSorp™, Nunc) were coated with 200 μl conjugate and blocked with 250 μl blocking solution as above, except that the blocking solution contained 3% BSA. The plates can be stored in blocking solution at 4° C. for 1 month.
1.3 AngI-EIA in 384 Well MTP
The AngI (1-10)/BSA coated MTP were washed 3 times with wash buffer (PBS 1×, 0.01% Tween 20) and filled with 75 μl of primary antibody solution (anti-AngI antiserum, pre-diluted 1:10 in horse serum), diluted to a final concentration of 1:100'000 in assay buffer (PBS 1×, 1 mM EDTA, 0.1% BSA, pH 7.4). 5 μl of the renin reaction (or standards in assay buffer) (see below) were added to the primary antibody solution and the plates were incubated overnight at 4° C. After the incubation the plates were washed 3 times with wash buffer and incubated with secondary antibody [anti-rabbit IgG, linked to horseradish peroxidase (Amersham Bioscience, NA 934V), diluted 1:2'000 in wash buffer] for 2 h at rt. The plates were washed 3 times with wash buffer and then incubated for 1 h at rt with substrate solution [1.89 mM ABTS (2,2′-azino-di-(3-ethyl-benzthiazolinsulfonate)] (Roche Diagnostics, 102 946) and 2.36 mM H2O2 [30%, (Fluka, 95300] in substrate buffer (0.1M sodium acetate, 0.05M sodium dihydrogen phosphate, pH 4.2). The OD of the plate was read at 405 nm in a microplate reader (FLUOStar Optima from BMG). The production of AngI during the renin reaction was quantified by comparing the OD of the sample with the OD of a standard curve of AngI(1-10), measured in parallel.
2. Primary Renin Inhibition Assay: IC50 in Buffer, 384 Well MTP
The renin assay was adapted from an assay described before (Fischli W. et al., Hypertension, 1991, 18:22-31) and consists of two steps: in the first step, recombinant human renin is incubated with its substrate (commercial human tetradecapeptide renin substrate) to create the product Angiotensin I (AngI). In the second step, the accumulated AngI is measured by an immunological assay (enzyme immuno assay, EIA). The detailed description of this assay is found below. The EIA is very sensitive and well suited for renin activity measurements in buffer or in plasma. Due to the low concentration of renin used in this assay (2 fmol per assay tube or 10 pM) it is possible to measure inhibitor affinities in this primary assay down to low pM concentration.
Recombinant human renin (3 pg/μl) in assay buffer (PBS 1×, 1 mM EDTA, 0.1% BSA, pH 7.4), human tetradecapeptide (1-14) substrate (Bachem, M-1120) [5 μM in 10 mM HCl], hydroxyquinoline sulfate (Fluka, 55100) [30 mM in H2O] and assay buffer were premixed at 4° C. at a ratio of 100:30:10:145. 47.5 μl per well of this premix was transferred into polypropylene plates (MTP384, Nunc). […]

SMILES | IC50 [nM]
COCCCc1ccc(Cl)c(CN(C(=O)C2=C(c3ccc(OCCOc4c(Cl)cc(C)cc4Cl)nc3)CCNC2)C2CC2)c1 [Example 18, 6-[2-(2,6-Dichloro-4-methyl-phenoxy)-ethoxy]-1′,2′,5′,6′-tetrahydro-[3,4′]bipyridinyl-3′-carboxylic acid [2-chloro-5-(3-methoxy-propyl)-benzyl]-cyclopropyl-amide] | 0.5
Cc1cc(Cl)c(O[C@@H]2CCN(c3ccc([C@H]4CCNC[C@@H]4C(=O)N(Cc4cc(CNC(=O)CC(F)(F)F)ccc4Cl)C4CC4)cn3)C2)c(Cl)c1 [Example 67, (3′R,4′S)-6-[(R)-3-(2,6-Dichloro-4-methyl-phenoxy)-pyrrolidin-1-yl]-1′,2′,3′,4′,5′,6′-hexahydro-[3,4′]bipyridinyl-3′-carboxylic acid {2-chloro-5-[(3,3,3-trifluoro-propionylamino)-methyl]-benzyl}-cyclopropyl-amide] | 0.63
O=C([C@H]1CNCC[C@@H]1c1ccc(OCc2cc(-c3c(F)ccc(F)c3Cl)no2)cc1)N(Cc1cc(CNCC(F)F)ccc1Cl)C1CC1 [Example 77, (3R,4S)-4-{4-[3-(2-Chloro-3,6-difluoro-phenyl)isoxazol-5-ylmethoxy]-phenyl}-piperidine-3-carboxylic acid {2-chloro-5-[(2,2-difluoro-ethylamino)-methyl]-benzyl}-cyclopropyl-amide] | 0.22
COCCCc1ccc(Cl)c(CN(C(=O)C2=C(c3ccc(CCOc4c(Cl)cc(C)cc4Cl)cc3)C[C@@H]3CNC[C@H]2N3)C2CC2)c1 (racemic) [Example 1, (rac.)-(1R*,5S*)-7-{4-[2-(2,6-Dichloro-4-methyl-phenoxy)-ethyl]-phenyl}-3,9-diaza-bicyclo[3.3.1]non-6-ene-6-carboxylic acid [2-chloro-5-(3-methoxy-propyl)-benzyl]-cyclopropyl-amide] | 0.2
COCCCc1cc(CN(C(=O)C2=C(c3ccc(OCCOc4c(Cl)cc(C)cc4Cl)nc3)C[C@@H]3CNC[C@H]2N3)C2CC2)c(Cl)cn1 [Example 42, (1R,5S)-7-{6-[2-(2,6-Dichloro-4-methyl-phenoxy)-ethoxy]-pyridin-3-yl}-3,9-diaza-bicyclo[3.3.1]non-6-ene-6-carboxylic acid [5-chloro-2-(3-methoxy-propyl)-pyridin-4-ylmethyl]-cyclopropyl-amide] | 0.26
COCCc1ccc(Cl)c(CN(C(=O)[C@@H]2[C@@H](c3ccc(OCc4cc(-c5c(F)ccc(F)c5Cl)no4)cc3)C[C@@H]3CC[C@H]2N3)C2CC2)c1 [Example 60, (1R,2R,3S,5S)-3-{4-[3-(2-Chloro-3,6-difluoro-phenyl)isoxazol-5-ylmethoxy]-phenyl}-8-aza-bicyclo[3.2.1]octane-2-carboxylic acid [2-chloro-5-(2-methoxy-ethyl)benzyl]-cyclopropyl-amide] | 0.26
COCCCc1ccc(Cl)c(CN(C(=O)C2=C(c3ccc(OCCOc4c(Cl)cc(C)cc4Cl)cc3)C[C@@H]3CN(C(=O)NC4CC4)C[C@H]2N3)C2CC2)c1 [Example 13, (1R,5S)-7-{4-[2-(2,6-Dichloro-4-methyl-phenoxy)-ethoxy]-phenyl}-3,9-diaza-bicyclo[3.3.1]non-6-ene-3,6-dicarboxylic acid 3-cyclopropylamide 6-{cyclopropyl-[2-chloro-5-(3-methoxy-propyl)-benzyl]-amide}] | 0.8
COCCCc1ccc(Cl)c(CN(C(=O)C2=C(c3ccc(OCCOc4c(Cl)cc(C)cc4Cl)cc3)C[C@@H]3CN(C(=N)N)C[C@H]2N3)C2CC2)c1 [Example 11, (1R,5S)-3-Carbamimidoyl-7-{4-[2-(2,6-dichloro-4-methyl-phenoxy)-ethoxy]-phenyl}-3,9-diaza-bicyclo[3.3.1]non-6-ene-6-carboxylic acid cyclopropyl-[2-chloro-5-(3-methoxy-propyl)-benzyl]-amide Hydrochloride Salt] | 0.3
Cc1cc(Cl)c(O[C@@H]2CCN(c3ccc([C@H]4CCNC[C@@H]4C(=O)N(Cc4cc(CNC(=O)C5CC5)ccc4Cl)C4CC4)cn3)C2)c(Cl)c1 [Example 93, (3′R,4′S)-6-[(R)-3-(2,6-Dichloro-4-methyl-phenoxy)-pyrrolidin-1-yl]-1′,2′,3′,4′,5′,6′-hexahydro-[3,4′]bipyridinyl-3′-carboxylic acid {2-chloro-5-[(cyclopropanecarbonyl-amino)-methyl]-benzyl}-cyclopropyl-amide] | 0.38

The next lines start with the values.

IC50 [nM] | SMILES
0.2 | COCCCc1ccc(Cl)c(CN(C(=O)C2=C(c3ccc(OCCOc4c(Cl)cc(C)cc4Cl)cc3)C[C@@H]3CNC[C@H]2N3)C2CC2)c1 [Example 4, (1R,5S)-7-{4-[2-(2,6-Dichloro-4-methyl-phenoxy)-ethoxy]-phenyl}-3,9-diaza-bicyclo[3.3.1]non-6-ene-6-carboxylic acid [2-chloro-5-(3-methoxy-propyl)-benzyl]-cyclopropyl-amide]
0.08 | CNC(=O)CCc1ccc(Cl)c(CN(C(=O)[C@H]2CNCC[C@@H]2c2ccc(OCc3cc(-c4c(F)ccc(F)c4Cl)no3)cc2)C2CC2)c1 [Example 102, (3R,4S)-4-{4-[3-(2-Chloro-3,6-difluoro-phenyl)isoxazol-5-ylmethoxy]-phenyl}-piperidine-3-carboxylic Acid [2-chloro-5-(2-methylcarbamoyl-ethyl)benzyl]-cyclopropyl-amide]
0.14 | COCCc1ccc(Cl)c(CN(C(=O)[C@@H]2[C@@H](c3ccc(OCCOc4c(Cl)cc(C)cc4Cl)cc3)C[C@@H]3CC[C@H]2N3)C2CC2)c1 [Example 26, (1R,2R,3S,5S)-3-{4-[2-(2,6-Dichloro-4-methyl-phenoxy)-ethoxy]-phenyl}-8-aza-bicyclo[3.2.1]octane-2-carboxylic acid [2-chloro-5-(2-methoxy-ethyl)-benzyl]-cyclopropyl-amide]
0.1 | COCCCc1cc(CN(C(=O)C2=C(c3ccc(OCc4cc(-c5c(F)ccc(F)c5Cl)no4)cc3)CCNC2)C2CC2)c(Cl)cn1 [Example 34, 4-{4-[3-(2-Chloro-3,6-difluoro-phenyl)-isoxazol-5-ylmethoxy]-phenyl}-1,2,5,6-tetrahydro-pyridine-3-carboxylic acid [5-chloro-2-(3-methoxy-propyl)-pyridin-4-ylmethyl]-cyclopropyl-amide]
0.18 | O=C(NCc1ccc(Cl)c(CN(C(=O)[C@H]2CNCC[C@@H]2c2ccc(OCc3cc(-c4c(F)ccc(F)c4Cl)no3)cc2)C2CC2)c1)C1CC1 [Example 83, (3R,4S)-4-{4-[3-(2-Chloro-3,6-difluoro-phenyl)-isoxazol-5-ylmethoxy]-phenyl}-piperidine-3-carboxylic acid {2-chloro-5-[(cyclopropanecarbonyl-amino)-methyl]-benzyl}-cyclopropyl-amide]
